According to PubChem BioAssay AID1963983 (Molecular Pharmacology Branch, DTP, NCI, 2024):

Tested on: 186277-243-T-J2-PDC multi-cell spheroid viability
Test: Anticancer human tumor 186277-243-T-J2-PDC patient-derived colon adenocarcinoma cell line growth inhibition [PI3K]
Conditions: for IC50: curve of first compound; for viability, T/C: stronger effect = lower value
Outline: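 Complex 3D spheroids (cancer cells + endothelial HUVEC + mesenchymal stem cells); drug pairs of targeted agent x inavolisib/alpelisib/duvelisib/copanlisib; half-log series from ~Cmax, max 10 microM if Cmax unknown; endpoint viability.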

[1] = second compound 0.00316 µM, first compound 0.0316 µM
[2] = second compound 0.00316 µM, first compound 0.1 µM
[3] = second compound 0.01 µM, first compound 0.0316 µM
[4] = second compound 0.01 µM, first compound 0.1 µM
[5] = second compound 0.0316 µM, first compound 0.0316 µM
[6] = second compound 0.0316 µM, first compound 0.1 µM
[7] = second compound 0.1 µM, first compound 0.0316 µM
[8] = second compound 0.1 µM, first compound 0.1 µM
[9] = second compound 0.316 µM, first compound 0.0316 µM
[10] = second compound 0.316 µM, first compound 0.1 µM
[11] = second compound 1 µM, first compound 0.0316 µM
[12] = second compound 1 µM, first compound 0.1 µM
[13] = second compound 0.0316 µM, first compound 0.316 µM
[14] = second compound 0.0316 µM, first compound 1 µM
[15] = second compound 0.0316 µM, first compound 3.16 µM
[16] = second compound 0.0316 µM, first compound 10 µM
[17] = second compound 0.1 µM, first compound 0.316 µM
[18] = second compound 0.1 µM, first compound 1 µM
[19] = second compound 0.1 µM, first compound 3.16 µM
[20] = second compound 0.1 µM, first compound 10 µM
[21] = second compound 0.316 µM, first compound 0.316 µM
[22] = second compound 0.316 µM, first compound 1 µM
[23] = second compound 0.316 µM, first compound 3.16 µM
[24] = second compound 0.316 µM, first compound 10 µM
[25] = second compound 1 µM, first compound 0.316 µM
[26] = second compound 1 µM, first compound 1 µM
[27] = second compound 1 µM, first compound 3.16 µM
[28] = second compound 1 µM, first compound 10 µM
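Note: spheroids exposed to compounds for seven days before viability reading.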
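Throughout, for viability, T/C: 100% = DMSO vehicle control viability.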

`CC(=O)c1c(C)c2cnc(Nc3ccc(N4CCNCC4)cn3)nc2n(C2CCCC2)c1=O` + CC(Nc1ccc2c(c1)OCCn1cc(N3C(=O)OCC3C(F)F)nc1-2)C(N)=O showed an IC50 (second compound 0.00316 µM) greater than 0.1 µM, an IC50 (second compound 0.01 µM) greater than 0.1 µM and an IC50 (second compound 0.0316 µM) greater than 0.1 µM. The IC50 (second compound 0.1 µM) was greater than 0.1 µM, the IC50 (second compound 0.316 µM) was 0.0964 µM and the IC50 (second compound 1 µM) was less than 0.000316 µM. The viability, T/C (second compound 0.00316 µM, first compound 0.000316 µM) was 114%, the viability, T/C (second compound 0.00316 µM, first compound 0.001 µM) was 89.2% and the viability, T/C (second compound 0.00316 µM, first compound 0.00316 µM) was 82.3%. The viability, T/C (second compound 0.00316 µM, first compound 0.01 µM) was 98.5%, the viability, T/C [1] was 118% and the viability, T/C [2] was 137%. It also gave a viability, T/C (second compound 0.01 µM, first compound 0.000316 µM) of 94%, a viability, T/C (second compound 0.01 µM, first compound 0.001 µM) of 94.8% and a viability, T/C (second compound 0.01 µM, first compound 0.00316 µM) of 89.8%. It also gave a viability, T/C (second compound 0.01 µM, first compound 0.01 µM) of 101%, a viability, T/C [3] of 119% and a viability, T/C [4] of 132%. The viability, T/C (second compound 0.0316 µM, first compound 0.000316 µM) was 119%, the viability, T/C (second compound 0.0316 µM, first compound 0.001 µM) was 116% and the viability, T/C (second compound 0.0316 µM, first compound 0.00316 µM) was 91.7%. The viability, T/C (second compound 0.0316 µM, first compound 0.01 µM) was 96.3%, the viability, T/C [5] was 134% and the viability, T/C [6] was 122%. For the same molecule, the viability, T/C (second compound 0.1 µM, first compound 0.000316 µM) was 104%, the viability, T/C (second compound 0.1 µM, first compound 0.001 µM) was 89.3% and the viability, T/C (second compound 0.1 µM, first compound 0.00316 µM) was 102%. It also gave a viability, T/C (second compound 0.1 µM, first compound 0.01 µM) of 98.6%, a viability, T/C [7] of 101% and a viability, T/C [8] of 89.4%. The viability, T/C (second compound 0.316 µM, first compound 0.000316 µM) was 85.3%, the viability, T/C (second compound 0.316 µM, first compound 0.001 µM) was 73.6% and the viability, T/C (second compound 0.316 µM, first compound 0.00316 µM) was 73.2%. The viability, T/C (second compound 0.316 µM, first compound 0.01 µM) was 76.1%, the viability, T/C [9] was 63.5% and the viability, T/C [10] was 49.3%. The viability, T/C (second compound 1 µM, first compound 0.000316 µM) was 49.7%, the viability, T/C (second compound 1 µM, first compound 0.001 µM) was 43.5% and the viability, T/C (second compound 1 µM, first compound 0.00316 µM) was 47.5%. It also gave a viability, T/C (second compound 1 µM, first compound 0.01 µM) of 41.2%, a viability, T/C [11] of 35.7% and a viability, T/C [12] of 29.6%.
`CC1(C)CCC(CN2CCN(c3ccc(C(=O)NS(=O)(=O)c4ccc(NCC5CCOCC5)c([N+](=O)[O-])c4)c(Oc4cnc5[nH]ccc5c4)c3)CC2)=C(c2ccc(Cl)cc2)C1` + Cc1nc(NC(=O)N2CCCC2C(N)=O)sc1-c1ccnc(C(C)(C)C(F)(F)F)c1 showed an IC50 (second compound 0.0316 µM) of 4.68 µM, an IC50 (second compound 0.1 µM) of 4.44 µM and an IC50 (second compound 0.316 µM) of 4.35 µM. The IC50 (second compound 1 µM) was 3.93 µM, the IC50 (second compound 3.16 µM) was 1.5 µM and the IC50 (second compound 10 µM) was less than 0.0316 µM. The viability, T/C [5] was 101%, the viability, T/C [6] was 92.7% and the viability, T/C [13] was 106%. For the same molecule, the viability, T/C [14] was 89.9%, the viability, T/C [15] was 74.6% and the viability, T/C [16] was 3.75%. For the same molecule, the viability, T/C [7] was 96.5%, the viability, T/C [8] was 109% and the viability, T/C [17] was 95.3%. The viability, T/C [18] was 101%, the viability, T/C [19] was 69.8% and the viability, T/C [20] was 2.39%. The viability, T/C [9] was 101%, the viability, T/C [10] was 85.7% and the viability, T/C [21] was 111%. It also gave a viability, T/C [22] of 104%, a viability, T/C [23] of 68.2% and a viability, T/C [24] of 2.68%. For the same molecule, the viability, T/C [11] was 101%, the viability, T/C [12] was 112% and the viability, T/C [25] was 96.9%. For the same molecule, the viability, T/C [26] was 89.7%, the viability, T/C [27] was 61.5% and the viability, T/C [28] was 0.93%. The viability, T/C (second compound 3.16 µM, first compound 0.0316 µM) was 54.2%, the viability, T/C (second compound 3.16 µM, first compound 0.1 µM) was 61.3% and the viability, T/C (second compound 3.16 µM, first compound 0.316 µM) was 58.9%. The viability, T/C (second compound 3.16 µM, first compound 1 µM) was 51.8%, the viability, T/C (second compound 3.16 µM, first compound 3.16 µM) was 43% and the viability, T/C (second compound 3.16 µM, first compound 10 µM) was 0.38%. The viability, T/C (second compound 10 µM, first compound 0.0316 µM) was 16.6%, the viability, T/C (second compound 10 µM, first compound 0.1 µM) was 15.8% and the viability, T/C (second compound 10 µM, first compound 0.316 µM) was 16.6%. It also gave a viability, T/C (second compound 10 µM, first compound 1 µM) of 12.8%, a viability, T/C (second compound 10 µM, first compound 3.16 µM) of 13.8% and a viability, T/C (second compound 10 µM, first compound 10 µM) of 0.48%.
For `CC1(C)CCC(CN2CCN(c3ccc(C(=O)NS(=O)(=O)c4ccc(NCC5CCOCC5)c([N+](=O)[O-])c4)c(Oc4cnc5[nH]ccc5c4)c3)CC2)=C(c2ccc(Cl)cc2)C1` + CC(Nc1ccc2c(c1)OCCn1cc(N3C(=O)OCC3C(F)F)nc1-2)C(N)=O, the IC50 (second compound 0.00316 µM) was 4.58 µM, the IC50 (second compound 0.01 µM) was 4.54 µM and the IC50 (second compound 0.0316 µM) was 4.36 µM. For the same molecule, the IC50 (second compound 0.1 µM) was 3.65 µM, the IC50 (second compound 0.316 µM) was 3.38 µM and the IC50 (second compound 1 µM) was less than 0.0316 µM. It also gave a viability, T/C [1] of 97.8%, a viability, T/C [2] of 99.7% and a viability, T/C (second compound 0.00316 µM, first compound 0.316 µM) of 95.3%. The viability, T/C (second compound 0.00316 µM, first compound 1 µM) was 91.9%, the viability, T/C (second compound 0.00316 µM, first compound 3.16 µM) was 71.2% and the viability, T/C (second compound 0.00316 µM, first compound 10 µM) was 5.92%. For the same molecule, the viability, T/C [3] was 107%, the viability, T/C [4] was 94.3% and the viability, T/C (second compound 0.01 µM, first compound 0.316 µM) was 95.1%. For the same molecule, the viability, T/C (second compound 0.01 µM, first compound 1 µM) was 95.3%, the viability, T/C (second compound 0.01 µM, first compound 3.16 µM) was 71.1% and the viability, T/C (second compound 0.01 µM, first compound 10 µM) was 3.55%. For the same molecule, the viability, T/C [5] was 106%, the viability, T/C [6] was 108% and the viability, T/C [13] was 99.4%. The viability, T/C [14] was 89.4%, the viability, T/C [15] was 71% and the viability, T/C [16] was 2.8%. The viability, T/C [7] was 98.6%, the viability, T/C [8] was 99.9% and the viability, T/C [17] was 87.5%. It also gave a viability, T/C [18] of 78.3%, a viability, T/C [19] of 60.3% and a viability, T/C [20] of 2.37%. For the same molecule, the viability, T/C [9] was 86.1%, the viability, T/C [10] was 83.3% and the viability, T/C [21] was 67.5%. The viability, T/C [22] was 71.1%, the viability, T/C [23] was 56.2% and the viability, T/C [24] was 0.63%. For the same molecule, the viability, T/C [11] was 47.5%, the viability, T/C [12] was 44.8% and the viability, T/C [25] was 46.3%. The viability, T/C [26] was 46.1%, the viability, T/C [27] was 34.4% and the viability, T/C [28] was 0.99%.
